Measurements published in patent US11523997B2, “Method of providing celiprolol therapy to a patient” (Assistance Publique-Hôpitaux de Paris (AP-HP), priority 2017, dated 2022).

How the values were obtained:
[1] = test system: patients with molecularly confirmed vascular EDS; assay: Cohort follow-up: incidence of acute arterial events and hospitalizations; assay type: in vivo, human
Method: (§1) All patients with clinically and molecularly diagnosed vEDS that were actively followed clinically in the French National Referral Centre for Rare Vascular Diseases (HEGP, AP-HP, Paris, France) between January 2000 and March 2017 were screened for participation. During the initial evaluation of the first affected family member seeking medical attention for symptoms related to vEDS (index case), familial medical history was recorded and investigation performed in the first-degree relatives whenever possible. A dedicated database for vEDS was created at our institution in 2011. All relevant clinical data of every vEDS patient followed by our centre was entered into this database retrospectively from the year 2000 until 2011, and prospectively thereafter until Mar. 15, 2017. The database contains all available medical history related to the pathology before the initial work-up and obtained during the follow-up either through systematic visits or those caused by a new clinical event. Thus, the occurrence of any acute arterial, gastrointestinal, pulmonary and other vEDS-related events was systematically recorded. In case of death during follow-up, the time and cause of death were entered into the database. This study was formally approved by the IDF ethics committee (IRB registration #00001072) and the database was held in compliance with French legislation on patient privacy.
(§2) All vEDS patients benefited from standardized whole body arterial monitoring by Doppler Ultrasound (DUS) and CT angiogram and/or MRA. Such investigations were performed at baseline (initial assessment at molecular diagnosis) and was repeated every 12 to 15 months in asymptomatic patients. For arterial events that occurred before molecular diagnosis, location of arterial segments was retrieved from hospitalization and imaging reports or examinations, when available. In case of an acute arterial event, symptomatic arterial beds/segments were monitored by any necessary diagnostic and therapeutic means (CT-angiogram, DUS, angiography in case of embolization). […] For optimized management of arterial, gastrointestinal, and pulmonary emergencies, patients were given direct access to the medical team of our centre.
In order to assess arterial morbidity over a long timeline in patients with different follow-up periods, an empirical arterial score was designed for each subject. […]
Quantitative data were expressed as number, median, first and third quartiles; qualitative data were expressed as number and percentage. […] Quantitative variables were compared with the Wilcoxon-Mann-Whitney or the Kruskal Wallis tests, as appropriate. […]

[2] = test system: patients with molecularly confirmed vascular EDS; assay: Long-term cohort follow-up of vEDS patients treated with celiprolol: patient survival (Kaplan-Meier, Cox model); assay type: in vivo, human; parameters: Survival of patients at 1 year of follow-up / Survival of patients at 5 years of follow-up / Survival of patients at 10 years of follow-up / Overall patient survival (Kaplan-Meier) / Survival at end of follow-up in those treated with celiprolol / Survival according to type of variant: Group I / Survival according to type of variant: Group II / Survival according to type of variant: Group III: concentration or dose not given beside the values
Method: as §1, §2
(§3) Since the publication of the BBest trial in 2011, all included patients followed by our centre and not already treated with celiprolol were offered to switch to celiprolol. Patients who were not part of the trial and who were diagnosed during or since the termination of the BBest trial were treated with celiprolol starting at molecular diagnosis. Initial dosing of celiprolol was 100 mg once daily and increased by 100 mg/day every month over a 3-month period to reach the dose of 400 mg/day (200 mg twice daily) (celiprolol hydrochloride). In case of signs of intolerance (fatigue, dizziness) during up-titration or follow-up, the dose of celiprolol was reduced by 100 mg/day until the highest tolerated dose was reached. Dose adjustments were made whenever necessary throughout the patient's follow-up if intolerance was suspected. In accordance with the treatment protocol of the BBEST trial, patients were up-titrated to a maximum dose of 200 mg twice daily.
Adherence to medication was verified by open interview of the patients at each follow-up visit. Low medication adherence was considered if patients admitted to not taking their medication regularly at any moment of their follow-up. Patients were considered intolerant to celiprolol in case of refusal to follow the prescription even at a minimum dose of 100 mg/day. Patients taking another beta-blocker were offered to switch to celiprolol but this change was not mandatory, especially if patients had been clinically silent until molecular diagnosis while under another betablocker. If an acute arterial event occurred, patients were once again offered to switch to celiprolol. […]

[3] = test system: patients with molecularly confirmed vascular EDS; assay: Cohort follow-up: tolerance of celiprolol with 3-month up-titration; assay type: in vivo, human
Method: as §3
Adherence to medication was verified by open interview of the patients at each follow-up visit. Low medication adherence was considered if patients admitted to not taking their medication regularly at any moment of their follow-up. Patients were considered intolerant to celiprolol in case of refusal to follow the prescription even at a minimum dose of 100 mg/day. Patients taking another beta-blocker were offered to switch to celiprolol but this change was not mandatory, especially if patients had been clinically silent until molecular diagnosis while under another betablocker. If an acute arterial event occurred, patients were once again offered to switch to celiprolol. To reach significant numbers to allow comparative analysis, intolerant patients, patients not taking celiprolol, patients taking another betablocker and non-adherent patients were merged into one group further referred to as “not treated”.

[4] = test system: patients with a phenotype of vEDS or molecularly proven vEDS; conditions: final 200 mg twice a day (BID); 5-year follow-up; 18-month up-titration; cited from earlier work
[5] = whole cohort, 90.3% on celiprolol by end of study
[6] = Cox's model, stepwise method, n=132
[7] = multivariate Cox's model, n=132 (Groups I and II)

CCN(CC)C(=O)Nc1ccc(OCC(O)CNC(C)(C)C)c(C(C)=O)c1 (stereo not shown) [celiprolol, N′-(3-Acetyl-4-(3-((1,1-dimethylethyl)amino)-2-hydroxypropoxy)phenyl)-N, N-diethylurea]
Odds ratio (OR), rate of hospitalizations for acute arterial event before and after 2011 ([1]; before vs after systematic introduction of celiprolol (2011)): 1.72 | Effect of celiprolol on mean age of occurrence of first and second new arterial event ([1]; in vivo): without identifiable effect | Cumulative incidence of a first new arterial event during follow-up [1, 5]: 56.8% | Cumulative incidence of a second new arterial event during follow-up [1, 5]: 29.8% | Observed reduction in mortality: dose dependence ([2]; 400 mg/day better than a smaller dose): dose-dependent | Hazard ratio, celiprolol treatment Full dose/No [2, 6]: 0.060 | Hazard ratio, celiprolol treatment Half dose/No [2, 6]: 0.305 | Hazard ratio, treatment duration ≥6 years/<6 years [2, 6]: 0.058 | Survival according to type of variant: Group I ([2]; Group I (glycine missense), n=144 cohort): 65.1% | Survival according to type of variant: Group II ([2]; Group II (splice-site variants, insertions/deletions, duplications)): 89.6% | Survival according to type of variant: Group III ([2]; Group III (haploinsufficiency)): 100% | Survival at end of follow-up in those treated with celiprolol ([2]; Groups I and II (n=132), treated n=110): 80.7% | Survival at end of follow-up according to daily dose: celiprolol 400 mg/day ([2]; Groups I and II, 400 mg/day): 85% | Survival at end of follow-up according to daily dose: celiprolol 100-300 mg/day ([2]; Groups I and II, 100-300 mg/day): 62.8% | Hazard ratio, celiprolol treatment Full dose/No [2, 7]: 0.048 | Hazard ratio, celiprolol treatment Half dose/No [2, 7]: 0.303 | Hazard ratio, treatment duration ≥6 years/<6 years [2, 7]: 0.058 | Survival of patients at 1 year of follow-up ([2]; n=144, 1 year): 98.6% | Survival of patients at 5 years of follow-up ([2]; n=144, 5 years): 92% | Survival of patients at 10 years of follow-up ([2]; n=144, 10 years): 82.7% | Overall patient survival (Kaplan-Meier) ([2]; n=144 vascular EDS patients, end of follow-up): 71.6% | Deceased patients with celiprolol treatment (Yes), % ([2]; of N=17 deceased patients): (52.9%) | Alive patients with celiprolol treatment (Yes), % ([2]; of N=127 alive patients): (87.4%) | Survival of patients treated with celiprolol compared with others ([2]; overall conclusion): better survival than others | Celiprolol intolerance and side effects with about three-month up-titration ([3]; full dose, up-titration of about three months): without significant increase | Patients requiring dose reduction due to fatigue and/or dizziness ([3]; human, in vivo): 3.47% | Patients who declared themselves intolerant to celiprolol or refused to take it in fear of intolerance ([3]; n=2 of 144): 1.4% | reduction in morbidity and mortality [4]: 35%
